Experimental data taken from patent US20150105252A1, “SUBSTITUTED PYRAZOLES AS HERBICIDES” (E I DU PONT DE NEMOURS AND COMPANY, priority 2013, published 2015).

Legend:
pigweed [1] = experiment: Test A postemergence; assay type: in vivo, Amaranthus retroflexus
Outline: (§1)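 Scoring was visual, on a scale where 100 means complete control and 0 means no effect, comparing treated with untreated plants around 10 days post-application. Compounds in surfactant-containing non-phytotoxic solvent were sprayed onto soil preemergence or onto one- to two-leaf seedlings (2–10 cm) postemergence.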

johnsongrass = experiment: Test C preemergence; assay type: in vivo, Sorghum halepense; details: for Plant response rating (scale of 0 to 100), Johnsongrass: Preemergence, 250 g ai/ha; for Johnsongrass plant response rating / Plant response rating, Johnsongrass: preemergence; for Plant response rating, Johnsongrass: scale 0 to 100, 0 = no effect, 100 = complete control
Outline: (§2)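 Visual control ratings on a 0–100 scale (100 = complete control) made against untreated controls after 13 to 15 days in greenhouse. Compounds applied in surfactant-containing solvent mixture, either preemergence to loam/sand-sown seeds or postemergence to 1- to 4-leaf plants (2–18 cm) in peat medium.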

pigweed [2] = experiment: Test A preemergence; assay type: in vivo, Amaranthus retroflexus; details: preemergence
Outline: as §1

galium = experiment: Test C preemergence; assay type: in vivo, Galium aparine; details: for Plant response rating (scale of 0 to 100), Galium: Preemergence, 250 g ai/ha; for Galium plant response rating / Plant response rating, Galium: preemergence; for Plant response rating, Galium: scale 0 to 100, 0 = no effect, 100 = complete control
Outline: as §2

soybean = experiment: Test C preemergence; assay type: in vivo, Glycine max; details: for Plant response rating (scale of 0 to 100), Soybean: Preemergence, 250 g ai/ha; for Soybean plant response rating / Plant response rating, Soybean: preemergence; for Plant response rating, Soybean: scale 0 to 100, 0 = no effect, 100 = complete control
Outline: as §2

corn = experiment: Test A preemergence; assay type: in vivo, Zea mays; details: preemergence
Outline: as §1

wheat = experiment: Test C preemergence; assay type: in vivo, Triticum aestivum; details: for Plant response rating (scale of 0 to 100), Wheat: Preemergence, 250 g ai/ha; for Wheat plant response rating / Plant response rating, Wheat: preemergence; for Plant response rating, Wheat: scale 0 to 100, 0 = no effect, 100 = complete control
Outline: as §2

ducksalad = experiment: Test B flood; assay type: in vivo, Heteranthera limosa; details: 250 g ai/ha, visual rating on 0 to 100 scale (0 no effect, 100 complete control), 13 to 15 days
Outline: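 Each compound is applied to the floodwater of pots holding 2-leaf seedlings, water standing 3 cm over the soil throughout. Plants stay in a greenhouse 13 to 15 days before visual scoring against controls from 0 (no effect) to 100 (complete control).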

morningglory = experiment: Test A preemergence; assay type: in vivo, Ipomoea spp.; details: preemergence
Outline: as §1

oilseed rape = experiment: Test C preemergence; assay type: in vivo, Brassica napus; details: for Plant response rating (scale of 0 to 100), Oilseed Rape: Preemergence, 250 g ai/ha; for Oilseed Rape plant response rating / Plant response rating, Oilseed Rape: preemergence; for Plant response rating, Oilseed Rape: scale 0 to 100, 0 = no effect, 100 = complete control
Outline: as §2

crabgrass, large [3] = experiment: Test C preemergence; assay type: in vivo, Digitaria sanguinalis; details: for Plant response rating (scale of 0 to 100), Crabgrass, Large: Preemergence, 250 g ai/ha; for Crabgrass, Large plant response rating / Plant response rating, Crabgrass, Large: preemergence; for Plant response rating, Crabgrass, Large: scale 0 to 100, 0 = no effect, 100 = complete control
Outline: as §2

blackgrass = experiment: Test C preemergence; assay type: in vivo, Alopecurus myosuroides; details: for Plant response rating (scale of 0 to 100), Blackgrass: Preemergence, 250 g ai/ha; for Blackgrass plant response rating / Plant response rating, Blackgrass: preemergence; for Plant response rating, Blackgrass: scale 0 to 100, 0 = no effect, 100 = complete control
Outline: as §2

crabgrass, large [4] = experiment: Test A postemergence; assay type: in vivo, Digitaria sanguinalis
Outline: as §1

barnyardgrass = experiment: Test A postemergence; assay type: in vivo, Echinochloa crus-galli
Outline: as §1

[5] = Postemergence, 500 g ai/ha, visual rating after approx. 10 days, 0 to 100 scale (0 no effect, 100 complete control)
[6] = postemergence, 125 g ai/ha, about 10 days, visual rating on 0 to 100 scale (0 no effect, 100 complete control)
[7] = 31 g ai/ha, visual rating, scale 0 to 100 (0 no effect, 100 complete control), 13 to 15 days
[8] = 62 g ai/ha, scale 0 to 100 (0 no effect, 100 complete control), 13 to 15 days
[9] = 125 g ai/ha, scale 0 to 100, 0 is no effect, 100 is complete control
[10] = 125 g ai/ha, visual injury, 0 to 100 scale, approx. 10 days
[11] = 500 g ai/ha, visual injury after approx. 10 days, 0 to 100 scale (0 no effect, 100 complete control)
[12] = Postemergence, 500 g ai/ha, 0 to 100 scale (0 no effect, 100 complete control)

For `CCCc1cc(C(=O)NCC(F)(F)F)nn1Cc1ccnc(C(F)(F)F)c1` [Compound 105], the “Pigweed plant response rating” value (pigweed [1]; [5]) was 100, the “Pigweed plant response rating” value (pigweed [1]; [6]) was 100 and the “Plant response rating (scale of 0 to 100), Johnsongrass” value (johnsongrass) was 100. The “Johnsongrass plant response rating” value (johnsongrass; [7]) was 80, the “Johnsongrass plant response rating” value (johnsongrass; [8]) was 95 and the “Johnsongrass plant response rating” value (johnsongrass; [9]) was 100. The “Pigweed plant response rating” value (pigweed [2]; [10]) was 100, the “Pigweed plant response rating” value (pigweed [2]; [11]) was 100 and the “Plant response rating (scale of 0 to 100), Galium” value (galium) was 100. The “Galium plant response rating” value (galium; [7]) was 100, the “Galium plant response rating” value (galium; [8]) was 100 and the “Galium plant response rating” value (galium; [9]) was 100. The “Plant response rating (scale of 0 to 100), Soybean” value (soybean) was 95, the “Soybean plant response rating” value (soybean; [7]) was 70 and the “Soybean plant response rating” value (soybean; [8]) was 70. For the same compound, the “Soybean plant response rating” value (soybean; [9]) was 95, the “Corn plant response rating” value (corn; [10]) was 60 and the “Corn plant response rating” value (corn; [11]) was 70. For the same compound, the “Plant response rating (scale of 0 to 100), Wheat” value (wheat) was 90, the “Wheat plant response rating” value (wheat; [7]) was 75 and the “Wheat plant response rating” value (wheat; [8]) was 85. For the same compound, the “Wheat plant response rating” value (wheat; [9]) was 90, the “Plant response rating, Ducksalad” value (ducksalad) was 95 and the “Morningglory plant response rating” value (morningglory; [10]) was 100. The “Morningglory plant response rating” value (morningglory; [11]) was 100, the “Plant response rating (scale of 0 to 100), Oilseed Rape” value (oilseed rape) was 100 and the “Oilseed Rape plant response rating” value (oilseed rape; [7]) was 95. The “Oilseed Rape plant response rating” value (oilseed rape; [8]) was 95, the “Oilseed Rape plant response rating” value (oilseed rape; [9]) was 95 and the “Plant response rating (scale of 0 to 100), Crabgrass, Large” value (crabgrass, large [3]) was 100. For the same compound, the “Crabgrass, Large plant response rating” value (crabgrass, large [3]; [7]) was 100, the “Crabgrass, Large plant response rating” value (crabgrass, large [3]; [8]) was 100 and the “Crabgrass, Large plant response rating” value (crabgrass, large [3]; [9]) was 100. For the same compound, the “Plant response rating (scale of 0 to 100), Blackgrass” value (blackgrass) was 90, the “Blackgrass plant response rating” value (blackgrass; [7]) was 90 and the “Blackgrass plant response rating” value (blackgrass; [8]) was 90. For the same compound, the “Blackgrass plant response rating” value (blackgrass; [9]) was 90, the “Crabgrass, Large plant response rating” value (crabgrass, large [4]; [5]) was 100 and the “Crabgrass, Large plant response rating” value (crabgrass, large [4]; [6]) was 100. The “Barnyardgrass plant response rating” value (barnyardgrass; [5]) was 100 and the “Barnyardgrass plant response rating” value (barnyardgrass; [6]) was 90.

With `CCCc1cc(C(=O)NCC)nn1Cc1cc(C(F)(F)F)nn1C` [Compound 129] the “Pigweed plant response rating” value (pigweed [1]; [12]) was 100, the “Pigweed plant response rating” value (pigweed [1]; [6]) was 100 and the “Plant response rating (scale of 0 to 100), Johnsongrass” value (johnsongrass) was 100. The “Johnsongrass plant response rating” value (johnsongrass; [7]) was 10, the “Johnsongrass plant response rating” value (johnsongrass; [8]) was 70 and the “Plant response rating, Johnsongrass” value (johnsongrass; 125 g ai/ha, 13 to 15 days) was 98. The “Pigweed plant response rating” value (pigweed [2]; [10]) was 100, the “Pigweed plant response rating” value (pigweed [2]; [11]) was 100 and the “Plant response rating (scale of 0 to 100), Galium” value (galium) was 100. The “Galium plant response rating” value (galium; [7]) was 100, the “Galium plant response rating” value (galium; [8]) was 100 and the “Plant response rating, Galium” value (galium; 125 g ai/ha, 13 to 15 days) was 95. The “Plant response rating (scale of 0 to 100), Soybean” value (soybean) was 98, the “Soybean plant response rating” value (soybean; [7]) was 40 and the “Soybean plant response rating” value (soybean; [8]) was 55. The “Plant response rating, Soybean” value (soybean; 125 g ai/ha, 13 to 15 days) was 98, the “Corn plant response rating” value (corn; [10]) was 10 and the “Corn plant response rating” value (corn; [11]) was 30. The “Plant response rating (scale of 0 to 100), Wheat” value (wheat) was 90, the “Wheat plant response rating” value (wheat; [7]) was 0 and the “Wheat plant response rating” value (wheat; [8]) was 35. The “Plant response rating, Wheat” value (wheat; 125 g ai/ha, 13 to 15 days) was 85, the “Plant response rating, Ducksalad” value (ducksalad) was 95 and the “Morningglory plant response rating” value (morningglory; [10]) was 100. The “Morningglory plant response rating” value (morningglory; [11]) was 100, the “Plant response rating (scale of 0 to 100), Oilseed Rape” value (oilseed rape) was 100 and the “Oilseed Rape plant response rating” value (oilseed rape; [7]) was 95. For the same compound, the “Oilseed Rape plant response rating” value (oilseed rape; [8]) was 95, the “Plant response rating, Oilseed Rape” value (oilseed rape; 125 g ai/ha, 13 to 15 days) was 100 and the “Plant response rating (scale of 0 to 100), Crabgrass, Large” value (crabgrass, large [3]) was 100. The “Crabgrass, Large plant response rating” value (crabgrass, large [3]; [7]) was 90, the “Crabgrass, Large plant response rating” value (crabgrass, large [3]; [8]) was 100 and the “Plant response rating, Crabgrass, Large” value (crabgrass, large [3]; 125 g ai/ha, 13 to 15 days) was 100. For the same compound, the “Plant response rating (scale of 0 to 100), Blackgrass” value (blackgrass) was 90, the “Blackgrass plant response rating” value (blackgrass; [7]) was 60 and the “Blackgrass plant response rating” value (blackgrass; [8]) was 80. The “Plant response rating, Blackgrass” value (blackgrass; 125 g ai/ha, 13 to 15 days) was 90, the “Crabgrass, Large plant response rating” value (crabgrass, large [4]; [12]) was 90 and the “Crabgrass, Large plant response rating” value (crabgrass, large [4]; [6]) was 80. For the same compound, the “Barnyardgrass plant response rating” value (barnyardgrass; [12]) was 90 and the “Barnyardgrass plant response rating” value (barnyardgrass; [6]) was 90.

With `CCNC(=O)c1cc(CC)n(Cc2ccnc(OC(F)F)c2)n1` [Compound 130] the “Pigweed plant response rating” value (pigweed [1]; [12]) was 100, the “Pigweed plant response rating” value (pigweed [1]; [6]) was 100 and the “Plant response rating (scale of 0 to 100), Johnsongrass” value (johnsongrass) was 95. For the same compound, the “Johnsongrass plant response rating” value (johnsongrass; [7]) was 35, the “Johnsongrass plant response rating” value (johnsongrass; [8]) was 65 and the “Plant response rating, Johnsongrass” value (johnsongrass; 125 g ai/ha, 13 to 15 days) was 75. The “Pigweed plant response rating” value (pigweed [2]; [10]) was 100, the “Pigweed plant response rating” value (pigweed [2]; [11]) was 100 and the “Plant response rating (scale of 0 to 100), Galium” value (galium) was 100. For the same compound, the “Galium plant response rating” value (galium; [7]) was 75, the “Galium plant response rating” value (galium; [8]) was 85 and the “Plant response rating, Galium” value (galium; 125 g ai/ha, 13 to 15 days) was 98. The “Plant response rating (scale of 0 to 100), Soybean” value (soybean) was 98, the “Soybean plant response rating” value (soybean; [7]) was 10 and the “Soybean plant response rating” value (soybean; [8]) was 55. For the same compound, the “Plant response rating, Soybean” value (soybean; 125 g ai/ha, 13 to 15 days) was 90, the “Corn plant response rating” value (corn; [10]) was 0 and the “Corn plant response rating” value (corn; [11]) was 90. The “Plant response rating (scale of 0 to 100), Wheat” value (wheat) was 95, the “Wheat plant response rating” value (wheat; [7]) was 0 and the “Wheat plant response rating” value (wheat; [8]) was 35. For the same compound, the “Plant response rating, Wheat” value (wheat; 125 g ai/ha, 13 to 15 days) was 40, the “Plant response rating, Ducksalad” value (ducksalad) was 90 and the “Morningglory plant response rating” value (morningglory; [10]) was 100. For the same compound, the “Morningglory plant response rating” value (morningglory; [11]) was 100, the “Plant response rating (scale of 0 to 100), Oilseed Rape” value (oilseed rape) was 100 and the “Oilseed Rape plant response rating” value (oilseed rape; [7]) was 75. For the same compound, the “Oilseed Rape plant response rating” value (oilseed rape; [8]) was 98, the “Plant response rating, Oilseed Rape” value (oilseed rape; 125 g ai/ha, 13 to 15 days) was 98 and the “Plant response rating (scale of 0 to 100), Crabgrass, Large” value (crabgrass, large [3]) was 100. The “Crabgrass, Large plant response rating” value (crabgrass, large [3]; [7]) was 100, the “Crabgrass, Large plant response rating” value (crabgrass, large [3]; [8]) was 100 and the “Plant response rating, Crabgrass, Large” value (crabgrass, large [3]; 125 g ai/ha, 13 to 15 days) was 100. For the same compound, the “Plant response rating (scale of 0 to 100), Blackgrass” value (blackgrass) was 98, the “Blackgrass plant response rating” value (blackgrass; [7]) was 25 and the “Blackgrass plant response rating” value (blackgrass; [8]) was 98. The “Plant response rating, Blackgrass” value (blackgrass; 125 g ai/ha, 13 to 15 days) was 98, the “Crabgrass, Large plant response rating” value (crabgrass, large [4]; [12]) was 90 and the “Crabgrass, Large plant response rating” value (crabgrass, large [4]; [6]) was 70. For the same compound, the “Barnyardgrass plant response rating” value (barnyardgrass; [12]) was 90 and the “Barnyardgrass plant response rating” value (barnyardgrass; [6]) was 70.
